The text below walks through data of ChEMBL document CHEMBL4665822, “Structure-Guided Optimization of Dipeptidyl Inhibitors of Norovirus 3CL Protease” (J Med Chem, 2020).

A short description of series [1]: Inhibition of Norovirus 3CL protease using Edans-DFHLQ/GPDabcyl preincubated for 30 mins followed by substrate addition and measured after 1 hr by FRET assay.
In series [2] the test system is Norovirus. As to the kind of experiment: Antiviral activity against Norovirus replicon infected in human HG23 cells assessed as reduction in viral RNA level after 48 hrs by qRT-PCR analysis. Type of series: functional, cell-based. The note with it: HG23, 48 h.
Series [3] can be described thus: Cytotoxicity against human HG23 cells assessed as reduction cell viability after 48 hrs by CytoTox 96 nonradioactive assay. Type of series: cell-based.

On to `CC(C)C[C@H](NC(=O)OC1(c2cccc(Cl)c2)CC1)C(=O)N[C@@H](C[C@@H]1CCNC1=O)C(O)S(=O)(=O)O` (some centres not stated), for which inhibition in series [1] was half-maximal at 250 nM (IC50). Also, the EC50 (in general, the concentration that produces a half-maximal response) in series [2] amounted to 550 nM. The CC50 (in general, the concentration giving 50% cytotoxicity) at 48 h in series [3] is > 100000 nM.
For the compound `CC(=O)OC([C@H](C[C@@H]1CCNC1=O)NC(=O)[C@H](CC(C)C)NC(=O)OCC(C)(C)c1cccc(Cl)c1)S(=O)(=O)O` (some centres not stated), the midpoint of inhibition in series [1], the IC50, lay at 130 nM. In addition, the EC50 in series [2] amounted to 450 nM. Moreover, in series [3], the CC50 at 48 h was > 100000 nM.
In the case of `CC(C)(Cc1cccc(Cl)c1)OC(=O)N[C@@H](CC1CCCCC1)C(=O)N[C@H](C=O)C[C@@H]1CCNC1=O`, the IC50 – broadly, the concentration that gives 50% inhibition – in series [1] is 7700 nM. For the same compound, the EC50 in series [2] came out at 5400 nM. In series [3], the CC50 at 48 h was determined as 15600 nM.
On the same counts, the results for `CC(C)C[C@H](NC(=O)OCCCc1ccccc1)C(=O)N[C@@H](C[C@@H]1CCNC1=O)C(O)S(=O)(=O)O` (some centres not stated) are 600 nM, 850 nM and > 100000 nM.
On the same counts, the results for `CC(=O)OC([C@H](C[C@@H]1CCNC1=O)NC(=O)[C@H](CC1CCCCC1)NC(=O)OCC(C)(C)c1cccc(Cl)c1)S(=O)(=O)O` (some centres not stated) are 90 nM, 150 nM and 67000 nM.
On the same counts, the results for `CC(C)C[C@H](NC(=O)OCCCc1ccccc1)C(=O)N[C@H](C=O)C[C@@H]1CCNC1=O` are 750 nM, 770 nM and > 100000 nM.
Regarding `CC(C)C[C@H](NC(=O)OCC(C)(C)c1cccc(Cl)c1)C(=O)N[C@H](C=O)C[C@@H]1CCNC1=O`, in series [1], the IC50 turned out to be 270 nM. Besides, the EC50 in series [2] is 170 nM. For the same compound, the CC50 at 48 h in series [3] was > 100000 nM.
In the case of `O=C[C@H](C[C@@H]1CCNC1=O)NC(=O)[C@H](CC1CCCCC1)NC(=O)OCCCc1cccc(Cl)c1`, the 50% effective concentration (EC50) in series [2] turned out to be 80 nM. In addition, the CC50 at 48 h in series [3] came out at 30300 nM.
In the case of `CC(C)(COC(=O)N[C@@H](CC1CCCCC1)C(=O)N[C@@H](C[C@@H]1CCNC1=O)C(O)S(=O)(=O)O)c1ccccc1` (some centres not stated), inhibition in series [1] was half-maximal at 320 nM (IC50). For the same compound, the EC50 in series [2] is 500 nM. For the same compound, the CC50 at 48 h in series [3] was determined as 83900 nM.
`CCCCCC(=O)OC([C@H](C[C@@H]1CCNC1=O)NC(=O)[C@H](CC1CCCCC1)NC(=O)OCC(C)(C)Cc1cccc(Cl)c1)S(=O)(=O)O` (some centres not stated): the EC50 in series [2] amounted to 80 nM. Further, the CC50 at 48 h in series [3] is 20700 nM.
As to `CC(C)C[C@H](NC(=O)OCC(C)(C)c1cccc(Cl)c1)C(=O)N[C@@H](C[C@@H]1CCNC1=O)C(O)S(=O)(=O)O` (some centres not stated), half-maximal inhibition in series [1] (IC50) was put at 300 nM. In series [2], the EC50 worked out at 190 nM. Moreover, in series [3], the CC50 at 48 h is > 100000 nM.
For `CC(C)C[C@H](NC(=O)OCC(C)(C)c1ccccc1)C(=O)N[C@@H](C[C@@H]1CCNC1=O)C(O)S(=O)(=O)O` (some centres not stated), the IC50 in series [1] stood at 400 nM. In addition, the EC50 in series [2] came to 450 nM. Besides, the CC50 at 48 h in series [3] was > 100000 nM.
As for `CC(C)C[C@H](NC(=O)OC/C=C/c1cccc(Cl)c1)C(=O)N[C@@H](C[C@@H]1CCNC1=O)C(O)S(=O)(=O)O` (some centres not stated), in series [1], half-maximal inhibition (IC50) was put at 110 nM. Besides, the EC50 in series [2] came out at 80 nM. Also, in series [3], the CC50 at 48 h is > 100000 nM.
Compound `O=C[C@H](C[C@@H]1CCNC1=O)NC(=O)[C@H](CC1CCCCC1)NC(=O)OC/C=C/c1cccc(Cl)c1` yielded an IC50 in series [1] of 140 nM. The EC50 in series [2] was 60 nM. The CC50 at 48 h in series [3] came out at 24100 nM.
For the compound `CC(C)(Cc1cccc(Cl)c1)OC(=O)N[C@@H](CC1CCCCC1)C(=O)N[C@@H](C[C@@H]1CCNC1=O)C(O)S(=O)(=O)O` (some centres not stated), the IC50 in series [1] amounted to 6800 nM. For the same compound, in series [2], the EC50 was 2900 nM. Besides, the CC50 at 48 h in series [3] was determined as 20400 nM.
On the same counts, the results for `CC(C)(COC(=O)N[C@@H](CC1CCCCC1)C(=O)N[C@H](C=O)C[C@@H]1CCNC1=O)c1ccccc1` are 450 nM, 600 nM and 80100 nM.
Consider `CC(C)C[C@H](NC(=O)OC(C)(C)Cc1cccc(Cl)c1)C(=O)N[C@@H](C[C@@H]1CCNC1=O)C(O)S(=O)(=O)O` (some centres not stated), for which the IC50 in series [1] is 1000 nM. In addition, in series [2], the EC50 came to 700 nM. Also, in series [3], the CC50 at 48 h is > 100000 nM.
On the same counts, the results for `O=C(N[C@@H](CC1CCCCC1)C(=O)N[C@@H](C[C@@H]1CCNC1=O)C(O)S(=O)(=O)O)OC1(c2cccc(Cl)c2)CC1` (some centres not stated) are 270 nM, 180 nM and 42300 nM.
On the same counts, the results for `CCC(=O)OC([C@H](C[C@@H]1CCNC1=O)NC(=O)[C@H](CC1CCCCC1)NC(=O)OCC(C)(C)c1cccc(Cl)c1)S(=O)(=O)O` (some centres not stated) are 70 nM, 220 nM and 70500 nM.
On the same counts, the results for `CC(C)(COC(=O)N[C@@H](CC1CCCCC1)C(=O)N[C@@H](C[C@@H]1CCNC1=O)C(O)S(=O)(=O)O)c1cccc(Cl)c1` (some centres not stated) are 200 nM, 80 nM and 14300 nM.
The compound `CC(C)C[C@H](NC(=O)OC(C)(C)c1cccc(Cl)c1)C(=O)N[C@@H](C[C@@H]1CCNC1=O)C(O)S(=O)(=O)O` (some centres not stated) registered an IC50 in series [1] of 3300 nM. Besides, the EC50 in series [2] is 1800 nM. In addition, in series [3], the CC50 at 48 h was > 100000 nM.
Take `O=C(N[C@@H](CC1CCCCC1)C(=O)N[C@@H](C[C@@H]1CCNC1=O)C(O)S(=O)(=O)O)OCCCc1cccc(Cl)c1` (some centres not stated): in series [2], the EC50 is 60 nM.
The compound `CC(C)(COC(=O)N[C@@H](CC1CCCCC1)C(=O)N[C@@H](C[C@@H]1CCNC1=O)C(O)S(=O)(=O)O)Cc1cccc(Cl)c1` (some centres not stated) came in with an IC50 in series [1] of 140 nM. The EC50 in series [2] came out at 70 nM. Moreover, the CC50 at 48 h in series [3] came out at 16200 nM.
As to `CC(C)(OC(=O)N[C@@H](CC1CCCCC1)C(=O)N[C@H](C=O)C[C@@H]1CCNC1=O)c1cccc(Cl)c1`, inhibition in series [1] was half-maximal at 2900 nM (IC50). The EC50 in series [2] worked out at 3700 nM. Moreover, the CC50 at 48 h in series [3] was > 100000 nM.
In turn, `CC(C)C[C@H](NC(=O)OCCCc1cccc(Cl)c1)C(=O)N[C@@H](C[C@@H]1CCNC1=O)C(O)S(=O)(=O)O` (some centres not stated) had an IC50 in series [1] of 190 nM. Also, the EC50 in series [2] was 90 nM. In addition, in series [3], the 50% cytotoxic concentration (CC50) at 48 h was > 100000 nM.
Turning to `CC(C)C[C@H](NC(=O)OC/C=C/c1cccc(Cl)c1)C(=O)N[C@H](C=O)C[C@@H]1CCNC1=O`, the IC50 in series [1] came to 150 nM. For the same compound, the EC50 in series [2] is 80 nM. Also, the CC50 at 48 h in series [3] is > 100000 nM.
On the same counts, the results for `CC(C)C[C@H](NC(=O)OC(C)(C)c1cccc(Cl)c1)C(=O)N[C@H](C=O)C[C@@H]1CCNC1=O` are 3800 nM, 3500 nM and > 100000 nM.
On the same counts, the results for `CCC(=O)OC([C@H](C[C@@H]1CCNC1=O)NC(=O)[C@H](CC1CCCCC1)NC(=O)OCC(C)(C)Cc1cccc(Cl)c1)S(=O)(=O)O` (some centres not stated) are 340 nM, 100 nM and 18400 nM.
Regarding `CC(C)(OC(=O)N[C@@H](CC1CCCCC1)C(=O)N[C@@H](C[C@@H]1CCNC1=O)C(O)S(=O)(=O)O)c1cccc(Cl)c1` (some centres not stated), half-maximal inhibition in series [1] (IC50) was put at 2700 nM. Besides, the EC50 in series [2] was 2900 nM. The CC50 at 48 h in series [3] was > 100000 nM.
On the same counts, the results for `CC(C)C[C@H](NC(=O)OC1(c2cccc(Cl)c2)CC1)C(=O)N[C@H](C=O)C[C@@H]1CCNC1=O` are 280 nM, 650 nM and > 100000 nM.
On the same counts, the results for `O=C[C@H](C[C@@H]1CCNC1=O)NC(=O)[C@H](CC1CCCCC1)NC(=O)OC1(c2cccc(Cl)c2)CC1` are 280 nM, 250 nM and 36500 nM.
In series [1], `CC(C)(COC(=O)N[C@@H](CC1CCCCC1)C(=O)N[C@H](C=O)C[C@@H]1CCNC1=O)Cc1cccc(Cl)c1` displayed an IC50 of 110 nM. The EC50 in series [2] turned out to be 60 nM. Also, the CC50 at 48 h in series [3] is 14100 nM.
As to `O=C(N[C@@H](CC1CCCCC1)C(=O)N[C@@H](C[C@@H]1CCNC1=O)C(O)S(=O)(=O)O)OC/C=C/c1cccc(Cl)c1` (some centres not stated), in series [1], the midpoint of inhibition, the IC50, lay at 160 nM. For the same compound, the half-maximal effective concentration (EC50) in series [2] came to 70 nM. Also, the 50% cytotoxic concentration (CC50) at 48 h in series [3] worked out at 28300 nM.
On the same counts, the results for `CC(C)C[C@H](NC(=O)OC(C)(C)Cc1cccc(Cl)c1)C(=O)N[C@H](C=O)C[C@@H]1CCNC1=O` are 1200 nM, 900 nM and > 100000 nM.
On the same counts, the results for `CC(C)C[C@H](NC(=O)OCCCc1cccc(Cl)c1)C(=O)N[C@H](C=O)C[C@@H]1CCNC1=O` are 260 nM, 160 nM and > 100000 nM.
On the same counts, the results for `CC(C)C[C@H](NC(=O)OCC(C)(C)c1ccccc1)C(=O)N[C@H](C=O)C[C@@H]1CCNC1=O` are 450 nM, 650 nM and > 100000 nM.
In series [1], `CC(C)(COC(=O)N[C@@H](CC1CCCCC1)C(=O)N[C@H](C=O)C[C@@H]1CCNC1=O)c1cccc(Cl)c1` gave an IC50 of 230 nM. Further, the EC50 in series [2] turned out to be 70 nM. In addition, the half-maximal cytotoxic concentration (CC50) at 48 h in series [3] was 13300 nM.
